Values of other authors as cited in US11377445B2, “Derivatives of paliperidone and process for the preparation thereof” (Zenvision Pharma LLP, priority 2018, dated 2022).

Compound | solubility in 0.1N HCl (0.1N HCl) | solubility in 0.1N NaOH (0.1N NaOH) | solubility in N, N-dimethylformamide (N, N-dimethylformamide) | solubility in hexane (hexane) | solubility in methylene chloride (methylene chloride) | solubility in water (water) | solubility in ethanol (ethanol) | solubility in ethyl acetate (ethyl acetate) | solubility in methanol (methanol) | solubility in polyethylene glycol 400 (polyethylene glycol 400) | solubility in propylene glycol (propylene glycol)
Cc1nc2n(c(=O)c1CCN1CCC(c3noc4cc(F)ccc34)CC1)CCCC2O (racemic) [Paliperidone, (±)-3-[2-[4-(6-fluoro-1,2-benzisoxazol-3-yl)-1-piperidinyl]ethyl]-6,7,8,9-tetrahydro-9-hydroxy-2-methyl-4Hpyrido[1,2-a]pyrimidin-4-one] | sparingly soluble | practically insoluble | slightly soluble | practically insoluble | sparingly soluble | practically insoluble |  |  |  |  | 
CCCCCCCCCCCCCCCC(=O)OC1CCCn2c1nc(C)c(CCN1CCC(c3noc4cc(F)ccc34)CC1)c2=O (centres unmarked) [Paliperidone palmitate] |  |  |  |  |  |  | very slightly soluble | slightly soluble | very slightly soluble | practically insoluble | practically insoluble
